Data published in patent US6469052B2, “Compounds for the photodecontamination of pathogens in blood” (Cerus Corporation, priority 1993, dated 2002).
Read-outs that look alike come from different tables or passages of the source.

How the values were obtained:
human platelets = settings: 100 μM compound, 5 Joules/cm^2, 5 days storage
Protocol: (§1) To measure the effects of the present compounds and methods of decontamination on platelet function using these four indicators, four samples were prepared for each compound tested, two control samples and two containing compound. Three units of human platelets were obtained from the Sacramento Blood Center, Sacramento, Calif. These were each transferred under sterile conditions to 50 ml centrifuge tubes, then aliquots of each unit were transferred into a second set of 50 ml sterile centrifuge tubes. To each centrifuge tube containing platelet concentrate (PC), an aliquot of compound stock was added to reach a final concentration of 100 μM of compound. […] The samples were pipetted gently up and down to mix. Then aliquots (either 3 ml or 8 ml) of each sample was transferred to two sterile Teflon™ Medi-bags™ (American Fluoroseal Co., Silver Springs, Md.) (presently owned by The West Company, Lionville, Pa.). Samples were treated in one of two different sized bags, having either 3 ml or 8 ml capacity. […] For each compound tested, two control samples without compound were prepared by again removing aliquots of platelet concentrate (17 ml if using an 8 ml bag, […] if using a 3 ml bag) from the same one of the first set of 50 ml centrifuge tubes from which the compound sample was drawn, and dividing into Medibags, as before. One of each pair of Medibags containing a compound, and one of each pair of control Medibags, were illuminated for 5 Joules/cm^2 on the device described in Example 1, above. Then all experimental and control Medibags were placed on a platelet shaker for storage for 5 days. The same experiments were repeated several times to obtain more statistically meaningful data, as represented by “n”, the number of data points represented, in the graphs of FIGS. 21-24, discussed below.
A Sysmex cell counter was used to measure platelet count in the platelet samples. Samples were diluted 1:3 in blood bank saline.

[1] = tested on: GMP-140 (p-selectin) on platelets; experiment: Platelet function: GMP-140 expression (flow cytometry, CD62); assay type: cell-based, human; settings: 100 μM compound, 5 Joules/cm^2, 5 days storage
Protocol: as §1

mouse reticulocytes = settings: increased dose levels, male Balb/c mice, tail vein
Protocol: Male Balb/c mice were then injected with 0.1 ml of a compound solution via the tail vein. At least 3 mice were injected per dose level. Saline only was used as a negative control. For a positive control, cyclophosphamide (cycloPP) was administered at a dose of 30 mg/kg. In the experimental group, the injections were repeated once per day for four days. In the positive control group, the sample was administered only once, on day three. On day 5, several microliters of blood were withdrawn from each subject and smeared on a glass slide. Cells were fixed in absolute methanol and stored in a slide rack.
For analysis, cells were stained with acridine orange and visualized under a fluorescence microscope by counting: (i) the number of reticulocytes per 5000 erythrocytes; and (ii) the number of micronucleated reticulocytes per 1000 reticulocytes. Reticulocytes were distinguished by their red fluorescence due to the presence of RNA. Micronuclei were distinguished by their green fluorescence due to the presence of DNA. The percentage of reticulocytes (%PCE) was then calculated. A decrease in the frequency of […] in the percentage of reticulocytes, is an indication of bone marrow toxicity. The percentage of reticulocytes with micronuclei (%PCE with MN) was also calculated. An increase in %PCE with MN is a measure of clastogenicity.
After initial results were determined, the experiment was repeated using increased dose levels, until: (i) Micronucleus formation was seen; or (ii) Bone marrow toxicity was observed; or (ii) The lethal dose was reached; or (iv) A dose of 5 g/kg was administered.

[2] = tested on: Salmonella typhimurium TA100
Excerpt: (§2) The second property that is important in testing a compound for use in methods of the present invention is mutagenicity. The most widely used mutagen/carcinogen screening assay is the Ames test. This assay is described by D. M. Maron and B. N. Ames in Mutation Research 113: 173 ( 1983) and a specific screen is described in detail in Example 17, below. The Ames test utilizes several unique strains of Salmonella typhimurium that are histidine- dependent for growth and that lack the usual DNA repair enzymes. The frequency of normal mutations that render the bacteria independent of histidine (i.e., the frequency of spontaneous revertants) is low. The test allows one to evaluate the impact of a compound on this revertant frequency.
(§3) In this example the compounds of the present invention are tested for their dark mutagenicity using an Ames assay. The procedures used for the Salmonella mutagenicity test as described in detail by Maron and Ames were followed exactly. Maron, D. M. and B. N. Ames, Mutation Research 113: 173 ( 1983). A brief description for each procedure is given here. The tester strains TA97a, TA98, TA100, TA102, TA1537 and TA1538 were obtained from Dr. Ames. TA97a, TA98, TA1537 and TA1538 are frameshift tester strains. TA100 and TA102 are base-substitution tester strains. Upon receipt each strain was cultured under a variety of conditions to confirm the genotypes specific to the strains.
(§4) The first tests done with the strains were to determine the range of spontaneous reversion for each of the strains. With each mutagenicity experiment the spontaneous reversion of the tester strains to histidine independence was measured and expressed as the number of spontaneous revertants per plate. This served as the background controls.
(§5) For all experiments, the pre-incubation procedure was used. In this procedure one vial of each tester strain was thawed and 20 μL of this culture was added to 6 mL of Oxoid Nutrient Broth #2. This solution was allowed to shake for 10 hours at 37° C. In the pre-incubation procedure, 0.1 mL of this overnight culture was added to each of the required number of sterile test tubes. To half of the tubes 0.5 mL of a 10% S-9 solution containing Aroclor 1254 induced rat liver extract (Molecular Toxicology Inc., Annapolis, Md.), and MgCl2, KCl, glucose-6-phosphate, NADP, and sodium phosphate buffer (Sigma, St. Louis, Mo.) were added. To the other half of the tubes 0.5 mL of 0.2M sodium phospate buffer, pH 7.4, was used in place of the S-9 mixture (the -S9 samples). Finally 0.1 mL of the test solution containing either 0, 0.1, 0.5, 1, 5, 10, 50, 100, 250, or 500 μg/mL of the test compound was added. The 0.7 mL mixture was vortexed and then pre-incubated while shaking for 20 minutes at 37° C. After shaking, 2 mL of molten top agar supplemented with histidine and biotin were added to the 0.7 mL mixture and immediately poured onto a minimal glucose agar plate (volume of base agar was 20 mL). The top agar was allowed 30 minutes to solidify and then the plates were inverted and incubated for 44 hours at 37° C. After incubation the number of revertant colonies on each plate were counted. […] (“n” represents the number of replicates performed for each data point.)
(§6) Maron and Ames (1983) describe the conflicting views with regard to the statisical treatment of data generated from the test.

[3] = tested on: Salmonella tester strains TA97a, TA98, TA100, TA102, TA1537 and TA1538; experiment: Ames assay, overall assessment over the tester strains
Excerpt: as §2, §3, §4
For all experiments, the pre-incubation procedure was used. In this procedure one vial of each tester strain was thawed and 20 μL of this culture was added to 6 mL of Oxoid Nutrient Broth #2. This solution was allowed to shake for 10 hours at 37° C. In the pre-incubation procedure, 0.1 mL of this overnight culture was added to each of the required number of sterile test tubes. To half of the tubes 0.5 mL of a 10% S-9 solution containing Aroclor 1254 induced rat liver extract (Molecular Toxicology Inc., Annapolis, Md.), and MgCl2, KCl, glucose-6-phosphate, NADP, and sodium phosphate buffer (Sigma, St. Louis, Mo.) were added. To the other half of the tubes 0.5 mL of 0.2M sodium phospate buffer, pH 7.4, was used in place of the S-9 mixture (the -S9 samples). Finally 0.1 mL of the test solution containing either 0, 0.1, 0.5, 1, 5, 10, 50, 100, 250, or 500 μg/mL of the test compound was added. […] After incubation the number of revertant colonies on each plate were counted. […]

[4] = tested on: Salmonella typhimurium TA1538; experiment: Ames assay (dark mutagenicity), strain TA1538
Excerpt: as §2, §3, §4, §5, §6

HIV-1 = settings: concentrations of 64 μM of compound or higher
Protocol: Pathogen inactivation efficiency of several compounds of the present invention was evaluated by examining the ability of the compounds to inactivate cell-free virus (HIV). Inactivation of cell-free HIV was performed as follows.
As in the R17 assay, small aliquots of the compounds listed in TABLES 10 and 11, below, at the concentrations listed in the table, were added to stock HIV-1 to a total of 0.5 mL. The stock HIV (10^5-10^7 plaque forming units/mL) was in DMEM/15% FBS. […] Controls included HIV-1 stock only, HIV-1 plus UVA only, and HIV-1 plus the highest concentration of each psoralen tested, with no UVA. Post irradiation, all samples were stores frozen at −70° C. until assayed for infectivity by a microtiter plaque assay. Aliquots for measurement of residual HIV infectivity in the samples treated with a compound of the present invention were withdrawn and cultured.
Residual HIV infectivity was assayed using an MT-2 infectivity assay. […] After 24 to 48 hours, the red fluorescence-stained microplaques were visualized by placing the plates on an 8,000 μW/cm^2 304 nm UV light box (Fotodyne, Inc., New Berlin, Wis.). The plaques were counted at a magnification of ×20 to ×25 through a stereomicroscope.

[5] = tested on: Salmonella typhimurium TA1537; experiment: Ames assay (dark mutagenicity), strain TA1537
Excerpt: as §2, §3, §4, §5, §6

[6] = tested on: Salmonella typhimurium TA98; experiment: Ames assay (dark mutagenicity), strain TA98
Excerpt: as §2, §3, §4, §5, §6

[7] = tested on: Salmonella typhimurium TA97a
Excerpt: as §2, §3, §4, §5, §6

[8] = tested on: Salmonella typhimurium TA102; experiment: Ames assay (dark mutagenicity), strain TA102
Excerpt: as §2, §3, §4, §5, §6

[9] = tested on: Chinese hamster ovary (CHO) cells; experiment: In vitro genotoxicity screen in CHO cells; assay type: cell-based; settings: approximately 3 hours exposure in the dark, dilutions 1-1000 μg/ml
Excerpt: The positive control was methylmethane sulfonate.
Coverslips were mounted with Permount.

[10] = tested on: Duck Hepatitis B Virus (DHBV); experiment: Inactivation of DHBV in platelet concentrate, PCR amplification readout; settings: 5J/CM^2 UVA
Protocol: This example describes the protocol for inactivation of Duck Hepatitis B Virus (DHBV), a model for Hepatitis B Virus, using compounds of the present invention. DHBV in duck yolk was added to platelet concentrate (PC) to a final concentration of 2×10^7 particles per mL and mixed by gentle rocking for ≧15 min. […] Samples, including controls without added psoralen, were irradiated with 5J/CM^2 UVA, with mixing at 1 J/cm^2 increments. After irradiation, leukocytes and platelets were separated from virus by centrifugation. […] Samples were extracted with phenol-chloroform and chloroform, followed by ethanol precipitation. […] PCR amplicons were generated using primers pairs DCD03/DCD05 (127 bp), DCD03/DCD06 (327 bp) and DCD03/DCD07 (1072 bp). PCR was performed in a standard PCR buffer containing 0.2 mM each deoxyribonucleoside 5′-triphosphates (dATP, dGTP, dCTP, and dTTP), […], and 0.5 units Taq polymerase per […]. 30 cycles of amplification were performed with the following thermal profile: 95° C. 30 sec, 60° C. 30 sec, 72° C. 1 min. The amplification was followed by a 7 min incubation at 72° C. to yield full length products. […] was added at an amount of […] in order to detect and quantify the resulting products. Products were separated by electrophoresis on denaturing polyacrylamide slab gels and counted. The absence of signal in a given reaction was taken to indicate effective inactivation of DHBV.

## Cc1cc(=O)oc2c(C)c3oc(CNCCCCN)c(C)c3cc12 [Compound 17, 5′-(6-amino-2-aza)hexyl-4,4′,8-trimethylpsoralen]
Human platelets
  platelet count compared with samples treated with light alone: higher platelet count than samples treated with light alone
[1]
  GMP-140 expression: sample treated with light and psoralen (PCD) versus day 5 untreated control (D5): little or no difference
Mouse reticulocytes
  outcome of dose escalation in the micronucleus assay: the acutely lethal dose was reached before there were any signs of bone marrow toxicity or micronucleus formation

## Cc1oc2c(C)c3oc(=O)cc(C)c3cc2c1CCN [Compound 3, 4′-(2-aminoethyl)-4,5′,8-trimethylpsoralen]
[2]; TA100 +S9, 5 μg/plate
  revertants per plate: −19
[2]; TA100 +S9, 10 μg/plate
  revertants per plate: 8
[3]; strains tested: TA100 and TA1538, ±S9, 5 and 10 μg/plate
  mutagenicity (overall): no mutagenicity
[4]; TA1538 −S9, 5 μg/plate
  revertants per plate: 0
[4]; TA1538 −S9, 10 μg/plate
  revertants per plate: −6
HIV-1
  HIV inactivation activity compared with AMT: significantly more active than AMT

## Cc1cc(=O)oc2c(C)c3oc(COCCN)c(C)c3cc12 [Compound 18, 5′-(4-amino-2-oxa)butyl-4,4′,8-trimethylpsoralen]
Human platelets
  platelet count compared with samples treated with light alone: higher platelet count than samples treated with light alone
[1]
  GMP-140 expression: sample treated with light and psoralen (PCD) versus day 5 untreated control (D5): notable increase above the control
[5]; TA1537 +S9, 10 μg/plate
  revertants per plate: 8
[5]; TA1537 +S9, 50 μg/plate
  revertants per plate: 6
[5]; TA1537 +S9, 100 μg/plate
  revertants per plate: 26
[5]; TA1537 +S9, 200 μg/plate
  revertants per plate: 42
[5]; TA1537 −S9, 10 μg/plate
  revertants per plate: 21
[5]; TA1537 −S9, 50 μg/plate
  revertants per plate: 303
[5]; TA1537 −S9, 100 μg/plate
  revertants per plate: 390
[5]; TA1537 −S9, 200 μg/plate
  revertants per plate: 225
Mouse reticulocytes
  outcome of dose escalation in the micronucleus assay: the acutely lethal dose was reached before there were any signs of bone marrow toxicity or micronucleus formation
[3]; in the absence of S9
  mutagenic response compared with AMT: higher in the absence of S9, but still was significantly below that of AMT
[3]; in the presence of S9 in strains TA 9o and TA 1537
  mutagenic response: only a weak response at high concentrations
[6]; TA98 +S9, 10 μg/plate
  revertants per plate: 8
[6]; TA98 +S9, 50 μg/plate
  revertants per plate: 6
[6]; TA98 +S9, 100 μg/plate
  revertants per plate: 26
[6]; TA98 +S9, 200 μg/plate
  revertants per plate: 42
[6]; TA98 −S9, 10 μg/plate
  revertants per plate: 21
[6]; TA98 −S9, 50 μg/plate
  revertants per plate: 303
[6]; TA98 −S9, 100 μg/plate
  revertants per plate: 390
[6]; TA98 −S9, 200 μg/plate
  revertants per plate: 225

## Cc1oc2c(C)c3oc(=O)cc(C)c3cc2c1CN [AMT, 4′-Aminomethyl-4,5′,8-trimethylpsoralen, reference compound]
[7]; TA97a −S9, 0.1 μg/plate
  revertants per plate: 14
[7]; TA97a −S9, 0.5 μg/plate
  revertants per plate: 9
[7]; TA97a −S9, 1 μg/plate
  revertants per plate: 54
[7]; TA97a −S9, 5 μg/plate
  revertants per plate: 73
[8]; TA102 +S9, 0.1 μg/plate
  revertants per plate: −20
[8]; TA102 +S9, 0.5 μg/plate
  revertants per plate: 5
[8]; TA102 +S9, 1 μg/plate
  revertants per plate: −17
[8]; TA102 +S9, 5 μg/plate
  revertants per plate: 51
[5]; TA1537
  dose at which frameshift mutagenicity was shown: 5 μg/plate
[5]; TA1537 +S9, 100 μg/plate
  revertants per plate: 500
[9]
  genotoxic (toxic) concentration: 30 µg/mL
[10]
  PCR amplification of the 1072 bp DHBV amplicon: a signal could be detected
[10]; 70 and 100 mM levels
  PCR amplification of the 1072 bp DHBV amplicon: inhibited PCR amplification
[4]; TA1538
  dose at which frameshift mutagenicity was shown: 1 μg/plate
[4]; TA1538 −S9, 0.1 μg/plate
  revertants per plate: 3
[4]; TA1538 −S9, 0.5 μg/plate
  revertants per plate: 4
[4]; TA1538 −S9, 1 μg/plate
  revertants per plate: 4
[4]; TA1538 −S9, 5 μg/plate
  revertants per plate: 13
[4]; TA1538 −S9, 10 μg/plate
  revertants per plate: 14
